Assays:
Type in all cases: biochemical
SIK3 = SIK3 (Homo sapiens, UniProt Q9Y2K2); assay: Enzymatic activity assay SIK3, RapidFire mass spectrometry (phosphorylation of CHK-peptide); conditions: RapidFire MS, inhibition of SIK3; read-out: SIK3 RF IC50
Summary of the method: (§1)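 Compounds (12-point, 3-fold, generally 30 μM to 170 pM) were pre-incubated 30 min at ambient temperature with SIK1 (5 nM), SIK2 (0.5 nM) or SIK3 (1.5 nM) in HEPES pH 7.0/magnesium acetate buffer. CHK-peptide (10 μM solution) and ATP (100 μM solution) were then added for 45 min before formic acid quench.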

SIK2 = SIK2 (Homo sapiens, UniProt Q9H0K1); assay: Enzymatic activity assay SIK2, RapidFire mass spectrometry (phosphorylation of CHK-peptide); conditions: RapidFire MS, inhibition of SIK2; read-out: SIK2 RF IC50
Summary of the method: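 SIK2 (0.5 nM) in pH 7.0 HEPES buffer with 10 mM Mg acetate phosphorylates CHK-peptide (10 μM solution) with 100 μM ATP solution, 45 min ambient, then formic acid quench.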

SIK1 = SIK1 (Homo sapiens, UniProt P57059); assay: Enzymatic activity assay SIK1, RapidFire mass spectrometry (phosphorylation of CHK-peptide); conditions: RapidFire MS, inhibition of SIK1; read-out: SIK1 RF IC50
Summary of the method: as §1

Chain of SIK1 (P57059 whole entry): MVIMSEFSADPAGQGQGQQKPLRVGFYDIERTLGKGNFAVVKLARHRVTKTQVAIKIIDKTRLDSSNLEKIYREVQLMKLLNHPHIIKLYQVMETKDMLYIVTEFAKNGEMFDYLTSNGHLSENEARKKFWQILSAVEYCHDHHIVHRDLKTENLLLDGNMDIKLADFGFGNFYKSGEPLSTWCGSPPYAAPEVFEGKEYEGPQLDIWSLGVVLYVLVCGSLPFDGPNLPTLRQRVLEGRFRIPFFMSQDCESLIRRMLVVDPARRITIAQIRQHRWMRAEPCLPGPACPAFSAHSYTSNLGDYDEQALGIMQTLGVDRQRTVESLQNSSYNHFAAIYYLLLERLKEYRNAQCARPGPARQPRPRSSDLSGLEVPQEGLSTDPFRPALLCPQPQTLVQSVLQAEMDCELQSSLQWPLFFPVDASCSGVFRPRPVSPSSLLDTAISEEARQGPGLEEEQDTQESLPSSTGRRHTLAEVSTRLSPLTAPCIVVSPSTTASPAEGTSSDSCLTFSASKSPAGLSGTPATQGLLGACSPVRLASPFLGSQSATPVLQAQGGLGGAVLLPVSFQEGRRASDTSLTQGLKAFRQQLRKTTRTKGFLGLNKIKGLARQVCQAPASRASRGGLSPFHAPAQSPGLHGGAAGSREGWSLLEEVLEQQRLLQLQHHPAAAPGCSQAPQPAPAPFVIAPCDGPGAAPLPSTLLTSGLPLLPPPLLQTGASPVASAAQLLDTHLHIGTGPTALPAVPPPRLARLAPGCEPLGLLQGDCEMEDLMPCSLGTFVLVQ
Chain of SIK2 (Q9H0K1 whole entry): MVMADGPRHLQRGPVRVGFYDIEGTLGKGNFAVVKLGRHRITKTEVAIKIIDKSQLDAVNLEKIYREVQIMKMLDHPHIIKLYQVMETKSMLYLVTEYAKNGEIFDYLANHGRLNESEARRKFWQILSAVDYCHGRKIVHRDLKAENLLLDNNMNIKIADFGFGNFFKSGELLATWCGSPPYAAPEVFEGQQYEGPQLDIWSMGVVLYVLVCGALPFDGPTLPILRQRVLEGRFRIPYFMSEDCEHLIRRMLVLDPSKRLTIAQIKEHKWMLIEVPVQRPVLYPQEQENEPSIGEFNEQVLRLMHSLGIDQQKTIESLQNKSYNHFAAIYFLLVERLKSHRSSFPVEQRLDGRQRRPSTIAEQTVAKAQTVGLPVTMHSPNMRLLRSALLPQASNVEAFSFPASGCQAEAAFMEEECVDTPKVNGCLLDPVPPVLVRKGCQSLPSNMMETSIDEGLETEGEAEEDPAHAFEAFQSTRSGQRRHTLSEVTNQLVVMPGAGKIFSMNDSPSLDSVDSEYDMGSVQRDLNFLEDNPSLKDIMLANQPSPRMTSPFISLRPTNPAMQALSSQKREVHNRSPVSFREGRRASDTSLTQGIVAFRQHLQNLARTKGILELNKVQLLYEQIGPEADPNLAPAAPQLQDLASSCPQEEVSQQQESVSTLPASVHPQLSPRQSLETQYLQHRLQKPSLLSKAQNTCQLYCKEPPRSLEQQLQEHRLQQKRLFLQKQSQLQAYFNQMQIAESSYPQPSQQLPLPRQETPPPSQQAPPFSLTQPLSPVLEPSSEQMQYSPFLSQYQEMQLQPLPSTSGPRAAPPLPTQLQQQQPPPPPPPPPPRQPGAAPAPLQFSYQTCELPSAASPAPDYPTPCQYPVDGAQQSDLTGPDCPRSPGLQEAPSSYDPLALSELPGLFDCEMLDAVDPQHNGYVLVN
Chain of SIK3 (Q9Y2K2 whole entry): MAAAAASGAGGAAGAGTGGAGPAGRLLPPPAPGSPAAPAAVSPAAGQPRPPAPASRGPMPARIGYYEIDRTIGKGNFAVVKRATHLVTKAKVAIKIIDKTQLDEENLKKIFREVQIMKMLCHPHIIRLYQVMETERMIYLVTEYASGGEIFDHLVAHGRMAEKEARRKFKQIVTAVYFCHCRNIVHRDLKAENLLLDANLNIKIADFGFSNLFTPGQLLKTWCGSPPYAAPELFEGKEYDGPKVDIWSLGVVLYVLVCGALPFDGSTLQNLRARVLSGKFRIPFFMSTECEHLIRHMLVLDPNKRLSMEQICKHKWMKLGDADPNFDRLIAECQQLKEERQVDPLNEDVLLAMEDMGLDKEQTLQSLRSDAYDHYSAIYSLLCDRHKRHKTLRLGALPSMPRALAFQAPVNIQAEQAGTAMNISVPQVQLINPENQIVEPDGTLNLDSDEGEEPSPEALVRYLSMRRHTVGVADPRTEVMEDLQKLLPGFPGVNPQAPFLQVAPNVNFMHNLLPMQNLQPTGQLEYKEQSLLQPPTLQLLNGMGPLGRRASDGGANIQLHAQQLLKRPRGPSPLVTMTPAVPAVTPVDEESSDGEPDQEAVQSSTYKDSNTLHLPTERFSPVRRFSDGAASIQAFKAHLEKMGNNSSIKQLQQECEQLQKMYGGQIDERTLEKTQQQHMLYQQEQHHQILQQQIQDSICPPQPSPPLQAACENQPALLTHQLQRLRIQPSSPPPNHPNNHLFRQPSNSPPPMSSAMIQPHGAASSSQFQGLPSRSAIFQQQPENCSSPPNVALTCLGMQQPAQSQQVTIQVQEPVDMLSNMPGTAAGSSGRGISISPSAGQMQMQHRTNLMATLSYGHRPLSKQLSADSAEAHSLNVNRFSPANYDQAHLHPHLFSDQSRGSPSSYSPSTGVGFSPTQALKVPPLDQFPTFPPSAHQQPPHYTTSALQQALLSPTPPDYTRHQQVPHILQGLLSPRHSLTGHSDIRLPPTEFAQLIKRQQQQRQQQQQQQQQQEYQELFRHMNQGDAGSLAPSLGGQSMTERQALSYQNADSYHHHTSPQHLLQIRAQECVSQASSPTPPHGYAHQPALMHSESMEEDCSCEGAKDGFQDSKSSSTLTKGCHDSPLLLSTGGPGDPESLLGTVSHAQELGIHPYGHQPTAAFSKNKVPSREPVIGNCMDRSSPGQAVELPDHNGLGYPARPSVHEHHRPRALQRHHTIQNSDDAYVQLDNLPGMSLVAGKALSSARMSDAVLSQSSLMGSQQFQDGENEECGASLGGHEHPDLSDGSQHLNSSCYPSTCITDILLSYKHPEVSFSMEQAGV

SMILES | IC50 (SIK3) [nM] | IC50 (SIK2) [nM] | IC50 (SIK1) [nM]
COc1cc2ncn(-c3ccc(CO)c(N4CCCC4=O)n3)c2cc1OC [Example 33, 1-(6-(5,6-Dimethoxy-1H-benzo[d]imidazol-1-yl)-3-(hydroxymethyl)pyridin-2-yl)pyrrolidin-2-one] | 1940 | 402 | 320
Cc1ccc(Nc2ccc3c(c2)ncn3-c2ccc(C(C)O)c(-n3nc(C(F)(F)F)c4c3CCNC4)n2)nn1 (stereo not drawn) [Example 97, 1-[6-[5-[(6-Methylpyridazin-3-yl)amino]benzimidazol-1-yl]-2-[3-(trifluoromethyl)-4,5,6,7-tetrahydropyrazolo[4,3-c]pyridin-1-yl]-3-pyridyl]ethanol] | 0.5 | 0.2 | 7
Cc1cc(C#N)nn1-c1nc(-n2cnc3cc(Nc4cnn(C5COC5)c4)ccc32)ccc1C(C)O (stereo not drawn) [Example 71, 1-[3-(1-Hydroxyethyl)-6-[5-[[1-(oxetan-3-yl)pyrazol-4-yl]amino]benzimidazol-1-yl]-2-pyridyl]-5-methyl-pyrazole-3-carbonitrile] | 2.2 | 1.4 | 5
Cc1cc(C#N)nn1-c1nc(-n2cnc3cc(Nc4ccn(C)c(=O)n4)ccc32)ccc1C(C)O (stereo not drawn) [Example 146, 1-[3-(1-Hydroxyethyl)-6-[5-[(2-keto-1-methyl-pyrimidin-4-yl)amino]benzimidazol-1-yl]-2-pyridyl]-5-methyl-pyrazole-3-carbonitrile] | 7.8 | 34.6 | 227
COc1cc2ncn(-c3ccc(CO)c(-c4cccc(Cl)c4F)n3)c2cc1OC [Example 15, (2-(3-Chloro-2-fluorophenyl)-6-(5,6-dimethoxy-1H-benzo[d]imidazol-1-yl)pyridin-3-yl)methanol] | 55.4 | 12.8 | 18
COc1cc2ncn(-c3ccc(C(C)O)c(-c4cccc(Cl)c4F)n3)c2cc1OC (stereo not drawn) [Example 20, 1-(2-(3-Chloro-2-fluorophenyl)-6-(5,6-dimethoxy-1H-benzo[d]imidazol-1-yl)pyridin-3-yl)ethan-1-ol] | 19.8 | 5 | 12

The next lines start with the values.

IC50 (SIK3) [nM] | IC50 (SIK2) [nM] | IC50 (SIK1) [nM] | SMILES
3.6 | 5.3 | 1050 | Cc1ccc(Nc2cc3ncn(-c4ccc(C(C)O)c(-n5nc(Cl)cc5C)n4)c3cc2F)nn1 (stereo not drawn) [Example 355, 1-[2-(3-chloro-5-methyl-pyrazol-1-yl)-6-[6-fluoro-5-[(6-methylpyridazin-3-yl)amino]benzimidazol-1-yl]-3-pyridyl]ethanol]
1030 | 211 | 151 | Cc1ccc(Nc2ccc3ncn(-c4ccc(CO)c(-n5nc(C#N)cc5C)n4)c3c2)nn1 [Example 269, 5-Methyl-1-[3-methylol-6-[6-[(6-methylpyridazin-3-yl)amino]benzimidazol-1-yl]-2-pyridyl]pyrazole-3-carbonitrile; formic acid]
29.5 | 288 | 3330 | Cc1ccc(Nc2ccc3c(c2)ncn3-c2ccc(C(C)O)c(-c3cccc4[nH]nnc34)n2)nn1 (stereo not drawn) [Example 194, 1-[2-(1H-Benzotriazol-4-yl)-6-[5-[(6-methylpyridazin-3-yl)amino]benzimidazol-1-yl]-3-pyridyl]ethanol]
1.4 | 1.1 | 138 | Cc1ccc(Nc2ccc3c(c2)ncn3-c2ccc(C(C)O)c(-c3cn(CC(F)F)nc3C)n2)nn1 (stereo not drawn) [Example 313, 1-[2-[1-(2,2-difluoroethyl)-3-methyl-pyrazol-4-yl]-6-[5-[(6-methylpyridazin-3-yl)amino]benzimidazol-1-yl]-3-pyridyl]ethanol]
9.5 | 65.3 | 4860 | Cc1ccc(Nc2ccc3c(c2)ncn3-c2ccc(C(C)O)c(N3CCOC(C(F)(F)F)C3)n2)nn1 (stereo not drawn) [Example 320, 1-[6-[5-[(6-methylpyridazin-3-yl)amino]benzimidazol-1-yl]-2-[2-(trifluoromethyl)morpholin-4-yl]-3-pyridyl]ethanol]

From US20240383875A1, “Benzimidazole Pyridine Derivatives” (Hoffmann-La Roche Inc., priority 2022, published 2024)
